Measurements as given in ChEMBL document CHEMBL4020788, “Synthesis, SAR and molecular docking studies of benzo[d]thiazole-hydrazones as potential antibacterial and antifungal agents” (2017).
Activity calls are given as the source filed them. No cut-off for these calls is given here.

Legend:
Type in all cases: functional
[1] = test system: Aspergillus niger; assay: Antifungal activity against Aspergillus niger at 25 ug/ml after 48 hrs by agar well diffusion method
[2] = test system: Escherichia coli; assay: Antibacterial activity against Escherichia coli at 25 ug/ml after 24 hrs by agar well diffusion method; details: for zone of inhibition at 25 µg/mL: read-out: DIZ
[3] = test system: Staphylococcus aureus; assay: Antibacterial activity against methicillin resistant Staphylococcus aureus MRSA090 at 25 ug/ml after 24 hrs by agar well diffusion method; details: MRSA090, 24 h, read-out: DIZ
[4] = test system: Bacillus subtilis; assay: Antibacterial activity against Bacillus subtilis at 50 ug/ml after 24 hrs by agar well diffusion method
[5] = test system: Fusarium oxysporum; assay: Antifungal activity against Fusarium oxysporum at 50 ug/ml after 48 hrs by agar well diffusion method
[6] = test system: Aspergillus niger; assay: Antifungal activity against Aspergillus niger at 100 ug/ml after 48 hrs by agar well diffusion method
[7] = test system: Fusarium verticillioides; assay: Antifungal activity against Fusarium moniliforme at 50 ug/ml after 48 hrs by agar well diffusion method; details: read-out: DIZ
[8] = test system: Klebsiella pneumoniae; assay: Antibacterial activity against Klebsiella pneumoniae at 25 ug/ml after 24 hrs by agar well diffusion method; details: read-out: DIZ
[9] = test system: Klebsiella pneumoniae; assay: Antibacterial activity against Klebsiella pneumoniae at 50 ug/ml after 24 hrs by agar well diffusion method; details: read-out: DIZ
[10] = test system: Staphylococcus aureus; assay: Antibacterial activity against methicillin resistant Staphylococcus aureus MRSA090 at 50 ug/ml after 24 hrs by agar well diffusion method; details: MRSA090, 24 h, read-out: DIZ
[11] = test system: Escherichia coli; assay: Antibacterial activity against Escherichia coli at 75 ug/ml after 24 hrs by agar well diffusion method; details: for zone of inhibition at 75 µg/mL: read-out: DIZ
[12] = test system: Bacillus subtilis; assay: Antibacterial activity against Bacillus subtilis at 75 ug/ml after 24 hrs by agar well diffusion method
[13] = test system: Fusarium oxysporum; assay: Antifungal activity against Fusarium oxysporum at 25 ug/ml after 48 hrs by agar well diffusion method
[14] = test system: Aspergillus niger; assay: Antifungal activity against Aspergillus niger at 75 ug/ml after 48 hrs by agar well diffusion method
[15] = test system: Fusarium verticillioides; assay: Antifungal activity against Fusarium moniliforme at 25 ug/ml after 48 hrs by agar well diffusion method; details: read-out: DIZ
[16] = test system: Staphylococcus aureus; assay: Antibacterial activity against Staphylococcus aureus at 50 ug/ml after 24 hrs by agar well diffusion method
[17] = test system: Aspergillus niger; assay: Antifungal activity against Aspergillus niger at 50 ug/ml after 48 hrs by agar well diffusion method
[18] = test system: Fusarium oxysporum; assay: Antifungal activity against Fusarium oxysporum at 75 ug/ml after 48 hrs by agar well diffusion method; details: for zone of inhibition at 75 µg/mL: read-out: DIZ
[19] = test system: Escherichia coli; assay: Antibacterial activity against Escherichia coli at 100 ug/ml after 24 hrs by agar well diffusion method; details: for zone of inhibition at 100 µg/mL: read-out: DIZ
[20] = test system: Bacillus subtilis; assay: Antibacterial activity against Bacillus subtilis at 100 ug/ml after 24 hrs by agar well diffusion method
[21] = test system: Fusarium verticillioides; assay: Antifungal activity against Fusarium moniliforme at 75 ug/ml after 48 hrs by agar well diffusion method; details: read-out: DIZ
[22] = test system: Klebsiella pneumoniae; assay: Antibacterial activity against Klebsiella pneumoniae at 100 ug/ml after 24 hrs by agar well diffusion method; details: read-out: DIZ
[23] = test system: Klebsiella pneumoniae; assay: Antibacterial activity against Klebsiella pneumoniae at 75 ug/ml after 24 hrs by agar well diffusion method; details: read-out: DIZ
[24] = test system: Staphylococcus aureus; assay: Antibacterial activity against Staphylococcus aureus at 75 ug/ml after 24 hrs by agar well diffusion method
[25] = test system: Fusarium oxysporum; assay: Antifungal activity against Fusarium oxysporum at 100 ug/ml after 48 hrs by agar well diffusion method; details: read-out: DIZ
[26] = test system: Staphylococcus aureus; assay: Antibacterial activity against methicillin resistant Staphylococcus aureus MRSA090 at 100 ug/ml after 24 hrs by agar well diffusion method; details: MRSA090, 24 h, read-out: DIZ
[27] = test system: Staphylococcus aureus; assay: Antibacterial activity against Staphylococcus aureus at 25 ug/ml after 24 hrs by agar well diffusion method
[28] = test system: Bacillus subtilis; assay: Antibacterial activity against Bacillus subtilis at 25 ug/ml after 24 hrs by agar well diffusion method
[29] = test system: Staphylococcus aureus; assay: Antibacterial activity against Staphylococcus aureus at 100 ug/ml after 24 hrs by agar well diffusion method
[30] = test system: Escherichia coli; assay: Antibacterial activity against Escherichia coli at 50 ug/ml after 24 hrs by agar well diffusion method; details: for zone of inhibition at 50 µg/mL: read-out: DIZ
[31] = test system: Fusarium verticillioides; assay: Antifungal activity against Fusarium moniliforme at 100 ug/ml after 48 hrs by agar well diffusion method; details: read-out: DIZ
[32] = test system: Staphylococcus aureus; assay: Antibacterial activity against methicillin resistant Staphylococcus aureus MRSA090 at 75 ug/ml after 24 hrs by agar well diffusion method; details: MRSA090, 24 h, read-out: DIZ

| Structure (SMILES) | zone of inhibition at 25 µg/mL [2] | zone of inhibition at 25 µg/mL [3] | diameter of the inhibition zone (DIZ) [5] | zone of inhibition at 50 µg/mL [7] | zone of inhibition at 25 µg/mL [8] | zone of inhibition at 50 µg/mL [9] | zone of inhibition at 50 µg/mL [10] | zone of inhibition at 75 µg/mL [11] | diameter of the inhibition zone (DIZ) [13] | zone of inhibition at 25 µg/mL [15] | diameter of the inhibition zone (DIZ) [16] | zone of inhibition at 100 µg/mL [19] | zone of inhibition at 75 µg/mL [21] | zone of inhibition at 100 µg/mL [22] | zone of inhibition at 75 µg/mL [23] | diameter of the inhibition zone (DIZ) [24] | zone of inhibition at 100 µg/mL [25] | zone of inhibition at 100 µg/mL [26] | zone of inhibition at 100 µg/mL [31] | zone of inhibition at 75 µg/mL [32] | other results |
| --- | --- | --- | --- | --- | --- | --- | --- | --- | --- | --- | --- | --- | --- | --- | --- | --- | --- | --- | --- | --- | --- |
| COc1ccc(/C=N/Nc2nc3cccc(C)c3s2)cc1Br | 7 mm | 8 mm | inactive | 11 mm | 7 mm | 11 mm | 12 mm | 13 mm | inactive | 7 mm | inactive | 16 mm | 13 mm | 16 mm | 14 mm | inactive | 10 mm | 18 mm | 17 mm | 16 mm | zone of inhibition at 25 µg/mL ([1]; read-out: DIZ): 8 mm; zone of inhibition at 50 µg/mL ([4]; read-out: DIZ): 8 mm; zone of inhibition at 100 µg/mL ([6]; read-out: DIZ): 18 mm; zone of inhibition at 75 µg/mL ([12]; read-out: DIZ): 11 mm; zone of inhibition at 75 µg/mL ([14]; read-out: DIZ): 14 mm; zone of inhibition at 50 µg/mL ([17]; read-out: DIZ): 11 mm; diameter of the inhibition zone (DIZ) [18]: inactive; zone of inhibition at 100 µg/mL ([20]; read-out: DIZ): 16 mm; diameter of the inhibition zone (DIZ) [27]: inactive; zone of inhibition at 25 µg/mL ([28]; read-out: DIZ): 4 mm; diameter of the inhibition zone (DIZ) [29]: inactive; zone of inhibition at 50 µg/mL [30]: 9 mm |
| Cc1cccc2nc(N/N=C/c3ccc[nH]3)sc12 | 12 mm | 4 mm | inactive | 9 mm | 10 mm | 14 mm | 8 mm | 22 mm | inactive | 4 mm | inactive | 24 mm | 14 mm | 23 mm | 19 mm | inactive | 15 mm | 17 mm | 18 mm | 11 mm | diameter of the inhibition zone (DIZ) [1]: inactive; diameter of the inhibition zone (DIZ) [4]: inactive; diameter of the inhibition zone (DIZ) [6]: inactive; diameter of the inhibition zone (DIZ) [12]: inactive; diameter of the inhibition zone (DIZ) [14]: inactive; diameter of the inhibition zone (DIZ) [17]: inactive; zone of inhibition at 75 µg/mL [18]: 10 mm; diameter of the inhibition zone (DIZ) [20]: inactive; diameter of the inhibition zone (DIZ) [27]: inactive; diameter of the inhibition zone (DIZ) [28]: inactive; diameter of the inhibition zone (DIZ) [29]: inactive; zone of inhibition at 50 µg/mL [30]: 17 mm |
| COc1cc(/C=N/Nc2nc3cccc(C)c3s2)ccc1OCc1ccccc1 | – | 5 mm | – | 9 mm | 7 mm | 12 mm | 10 mm | – | inactive | 4 mm | – | – | 15 mm | 17 mm | 14 mm | – | 14 mm | 14 mm | 20 mm | 12 mm | diameter of the inhibition zone (DIZ) [1]: inactive; diameter of the inhibition zone (DIZ) [2]: inactive; diameter of the inhibition zone (DIZ) [4]: inactive; zone of inhibition at 50 µg/mL ([5]; read-out: DIZ): 5 mm; diameter of the inhibition zone (DIZ) [6]: inactive; diameter of the inhibition zone (DIZ) [11]: inactive; diameter of the inhibition zone (DIZ) [12]: inactive; diameter of the inhibition zone (DIZ) [14]: inactive; zone of inhibition at 50 µg/mL ([16]; read-out: DIZ): 11 mm; diameter of the inhibition zone (DIZ) [17]: inactive; zone of inhibition at 75 µg/mL [18]: 9 mm; diameter of the inhibition zone (DIZ) [19]: inactive; diameter of the inhibition zone (DIZ) [20]: inactive; zone of inhibition at 75 µg/mL ([24]; read-out: DIZ): 14 mm; zone of inhibition at 25 µg/mL ([27]; read-out: DIZ): 7 mm; diameter of the inhibition zone (DIZ) [28]: inactive; zone of inhibition at 100 µg/mL ([29]; read-out: DIZ): 18 mm; diameter of the inhibition zone (DIZ) [30]: inactive |
